The Kp is tissue or fluid exposure divided by exposure in the circulation. By AUC(0-t) is commonly meant exposure summed from dosing to a finite time, without extrapolation to infinity.

The values that follow come from patent publication US20200345746A1, “Oxazine Derivative for Use in the Prevention of Alzheimer's Disease in at Risk Patents” (Novartis AG, priority 2016, published 2020).

SMILES strings stand for the structures. Marks after values point to notes of the source that are not given here.

For series [1], the system named is C57BL/6 mice. Briefly: Fur colour scoring, chronic 8-week dosing in wild-type mice. Type of series: in vivo, mouse. Here is the method:
(§1) Compound 1 and NB-360 were formulated as a suspension. […] Vehicle: […] in 0.5% methylcellulose in water.
(§2) Body weight was taken 3 times per week (Monday, Wednesday, Friday). Subjective scoring of any hair colour changes was performed once weekly (Wednesday). Scores (% of body with grey fur): 0: No change; 1: Spots; 2: >30%; 3: >50%; 4: >75%; 5: 100%. Animals were photo-documented when fur color change was observed. Final fur color scoring was performed blinded and by a person not involved in the study.

The nature of series [2]: Compound levels in blood, brain and skin of C57BL/6 mice (HPLC/MS/MS). The conditions noted are these: for AUCbrain (AUC0-24 h) / AUCventral skin (AUC0-24 h) / AUCdorsal skin (AUC0-24 h) / AUC(0-t): day 56; for AUCbrain (AUC0-24 h) / AUCventral skin (AUC0-24 h) / AUCdorsal skin (AUC0-24 h): from 4 and 24 h; for AUC(0-t): whole blood, po, AUCblood (AUC0-24 h).
From the text: Blood samples were used to analyze whole-blood compound levels and were obtained either from tail-vein during the in-life part into EDTA tubes (CB300, Sarstedt, Germany) or from trunk blood at the day of necropsy into EDTA Eppendorf tubes (Milian S A, CatNoTOM-14, Fisher Scientific, Wohlen, Switzerland), or into serum tubes (CB300Z, Sarstedt, Nümbrecht, Germany).
Brain was removed immediately after decapitation, rinsed with saline and sectioned sagitally down the midline. The left half of the cerebellum was used to analyze compound level and was placed into a glass tube (Chromacol, 125×5-SV T051, Welwyn Garden City, United Kingdom), weighed and frozen in dry-ice, the left half of the forebrain (without olfactory bulb) was used for Aβ analysis, and was frozen on a metal plate on dry ice and placed into protein Lo-bind tube (003 0108.116, Eppendorf, Hamburg, Germany).
Ventral and dorsal skin were taken to analyze compound level, weighed and frozen on dry-ice.
Brain samples were mixed with 2 volumes of KH2PO4 buffer and homogenized using the Covaris® device. Skin samples were mixed with approx. 6-fold volumes of methanol/water and homogenized using a Precellys tube. Either 30 μL of blood, brain or skin homogenate were spiked with a structurally related internal standard and subsequently mixed with an at least 6-fold excess volume acetonitrile for protein precipitation. The supernatant was injected directly into the LC/MS/MS system for analysis.
For tissue exposure, only data at 4 and 24 h were available.
A short description of series [3]: Body weight, chronic 8-week dosing in wild-type mice. It is filed as in vivo, mouse. The conditions noted are these: C57BL/6 mice, 8 weeks chronic treatment. Here is the method:
as §1, §2

Turning to `Cc1cc(C#N)cnc1C(=O)Nc1ccc(F)c([C@]2(C)CO[C@@](C)(C(F)(F)F)C(N)=N2)c1` [NB-360, N-(3-((3R,6R)-5-amino-3,6-dimethyl-6-(trifluoromethyl)-3,6-dihydro-2H-1,4-oxazin-3-yl)-4-fluorophenyl)-5-cyano-3-methylpicolinamide], in series [1], the “fur discoloration reached a plateau after” value worked out at 5 weeks. In addition, the fur colour change entry is “slight but significant fur score change” in series [1] (20 μmol/kg p.o. once daily, 8 weeks); “more severe and profound fur color change” in series [1] (100 μmol/kg p.o. once daily, 8 weeks). Further, in series [1] (20 and 100 μmol/kg groups, 8 weeks), the fur discoloration entry is “All animals in the NB-360 group showed fur discoloration”. Besides, the “appearance of grey patches apparent after” value in series [1] (high and low dose group) was 3 weeks. In addition, the “AUCbrain (AUC0-24 h)” value in series [2] (C57BL/6, 20 μmol/kg q.d.) worked out at 16.39 µmol·h/kg; in series [2] (C57BL/6, 100 μmol/kg q.d.), 114.45 µmol·h/kg. Moreover, the “AUCventral skin (AUC0-24 h)” value amounted to 104.81 µmol·h/kg in series [2] (C57BL/6, 20 μmol/kg q.d.) and 712.16 µmol·h/kg in series [2] (C57BL/6, 100 μmol/kg q.d.). Further, the “AUCdorsal skin (AUC0-24 h)” value in series [2] (C57BL/6, 20 μmol/kg q.d., n = 2 for 24 h) is 46.9^c μmol/kg · h; in series [2] (C57BL/6, 100 μmol/kg q.d.), 294 µmol·h/kg. The compound also showed a partition ratio (Kp) in series [2] (C57BL/6, mouse, brain / whole blood, oral) of 2.8. In addition, the AUC(0-t) was found to be 6.93 µM·h in series [2] (C57BL/6, mouse, 20 umol/kg, C57BL/6, 20 μmol/kg q.d., from 1, 4, 7, 24 h time points); 5.6 µM·h in series [2] (C57BL/6, mouse, 20 umol/kg, C57BL/6, 20 μmol/kg q.d., from 4 and 24 h time points); 35.9 µM·h in series [2] (C57BL/6, mouse, 100 umol/kg, C57BL/6, 100 μmol/kg q.d., from 1, 4, 7, 24 h time points); 25.3 µM·h in series [2] (C57BL/6, mouse, 100 umol/kg, C57BL/6, 100 μmol/kg q.d., from 4 and 24 h time points). The “body weight difference compared to vehicle” value in series [3] is listed as “No overall significant body weight difference”.
